Like-named read-outs stand apart in the source and are kept apart here.
Key:
Assay type in all cases: cell-based
GIST882 cell line = assay: High throughput drug sensitivity and resistance test (CellTiter-Glo, 72 hours); details: drug combined with BAY2666605 (40 nM) minus drug alone
Procedure: High throughput drug sensitivity and resistance test. […] In addition, same compounds were investigated together with anagrelide hydrochloride (100 nM) treatment in the PDE3A low expressing cell lines SA4 and GOT3, and with BAY2666605 (40 nM) in all PDE3A-positive cell lines GIST882, SA4 and GOT3. […] A cell viability was measured after 72 hours using CellTiter-Glo Cell Viability assay (Promega Inc.) and PHERAstar FS plate reader (BMG Labtech). The data were normalized to negative (0.01% dimethyl sulfoxide only) and positive (100 μmol/L benzethonium chloride) controls.
(§1) A four-parameter logistic dose-response curves were estimated by using the Marquardt-Levenberg algorithm and Breeze analysis platform. Drug responses to the test compounds were measured using the drug sensitivity score (DSS). Drug synergy partners, which were common in investigated cell lines were identified as following: DSS value of a single agent was subtracted from the DSS value of anagrelide-drug combination in single cell lines. […] The analysis was repeated by using BAY2666605 as a PDE3A modulator.

SA4 cell line = assay: as above; details: for SA4 cell line: DSS(combo (BAY2666605))-DSS(drug): drug combined with BAY2666605 (40 nM) minus drug alone
Procedure: (§2) Cell lines. PDE3A-positive (GIST882, SA4, and GOT3) and PDE3A-negative cell lines (93TT449, 94T778, LPS141, MLS17656-92, MLS402-91, and SW872) were cultured in RPMI Medium 1640 (Gibco) with 5-, 10- or 20% fetal bovine serum (FBS, gibco), 100 U/mL of penicillin, 100 […] and 0.03 mg/mL of L-glutamine (Pen Strep Glut, Gibco, 10378-016) in a humidified, 5% CO2 atmosphere at 37° C.
(§3) High throughput drug sensitivity and resistance test. A sensitivity and resistance of cancer cell lines to 528 compounds were investigated in 9 cell lines (GIST882, SA4, GOT3, 93TT449, 94T778, LPS141, MLS17656-92, MLS402-91, and SW872). In addition, same compounds were investigated together with anagrelide hydrochloride (100 nM) treatment in the PDE3A low expressing cell lines SA4 and GOT3, and with BAY2666605 (40 nM) in all PDE3A-positive cell lines GIST882, SA4 and GOT3. The compounds were dissolved in 100% dimethyl sulfoxide or water and plated in 10-fold dilutions covering a 10,000-fold concentration range on flat clear bottom 384-well microplates as described in detail earlier (Pulkka O P, et al 2019). A cell viability was measured after 72 hours using CellTiter-Glo Cell Viability assay (Promega Inc.) and PHERAstar FS plate reader (BMG Labtech). The data were normalized to negative (0.01% dimethyl sulfoxide only) and positive (100 μmol/L benzethonium chloride) controls.
as §1

GOT3 cell line = assay: as above; details: for GOT3 cell line: DSS(combo (BAY2666605))-DSS(drug): drug combined with BAY2666605 (40 nM) minus drug alone
Procedure: as §2, §3, §1

[1] = test system: GIST882, GOT3 and SA4 cell lines; assay: High throughput drug sensitivity and resistance test, average over cell lines (BAY2666605 combination); details: for Average DSS (aDSS): BAY2666605 combination, average of GIST882, SA4 and GOT3, aDSS higher than 3.0 = synergy
Procedure: as §2, §3, §1

GOT3 and SA4 cell lines = assay: High throughput drug sensitivity and resistance test, average over cell lines (anagrelide combination)
Procedure: as §2, §3, §1

[2] = with anagrelide (GOT3, SA4) or BAY2666605 (GIST882, GOT3, SA4)
[3] = anagrelide combination, average of SA4 and GOT3, aDSS higher than 3.0 = synergy
[4] = drug combined with anagrelide hydrochloride (100 nM) minus drug alone, SA4
[5] = drug combined with anagrelide hydrochloride (100 nM) minus drug alone, GOT3

SMILES | synergy in high-throughput screening (in words) [1, 2] | Average DSS (aDSS) (GOT3 and SA4 cell lines; [3]) | SA4 cell line: DSS(combo (anagrelide))-DSS(drug) (SA4 cell line; [4]) | GOT3 cell line: DSS(combo (anagrelide))-DSS(drug) (GOT3 cell line; [5]) | other results
COc1ccc(C[C@H](NC(=O)[C@H](C)NC(=O)CN2CCOCC2)C(=O)N[C@@H](Cc2ccccc2)C(=O)C2(C)CO2)cc1 (stereo in doubt) [ONX-0914] | synergistic | – | – | – | GIST882 cell line: DSS(combo (BAY2666605))-DSS(drug) (GIST882 cell line): 8.4; SA4 cell line: DSS(combo (BAY2666605))-DSS(drug) (SA4 cell line; SA4): 4.6; GOT3 cell line: DSS(combo (BAY2666605))-DSS(drug) (GOT3 cell line; GOT3): 0.9; Average DSS (aDSS) [1]: 4.6
CC(C)[C@@H](CS(=O)(=O)C(C)C)N1C(=O)[C@@](C)(CC(=O)O)C[C@H](c2cccc(Cl)c2)[C@H]1c1ccc(Cl)cc1 [AMG-232] | synergistic | 3.1 | 6.2 | 0 | –
CC(C)[C@H](C(=O)Nc1ccc(C(=O)NO)cc1)c1ccccc1 [AR-42] | synergistic | 6.05 | 12.9 | −0.8 | –
CN(C)CCCOc1ccc(-c2ccc3ncc4c(c3c2)n(C2CCOCC2)c(=O)n4C)cn1 [AZD0156] | synergistic | – | – | – | GIST882 cell line: DSS(combo (BAY2666605))-DSS(drug) (GIST882 cell line): 7.5; SA4 cell line: DSS(combo (BAY2666605))-DSS(drug) (SA4 cell line; SA4): 3; GOT3 cell line: DSS(combo (BAY2666605))-DSS(drug) (GOT3 cell line; GOT3): −1.2; Average DSS (aDSS) [1]: 3.1
CCN(CCO)CCCOc1ccc2c(Nc3cc(CC(=O)Nc4cccc(F)c4)[nH]n3)ncnc2c1 [AZD1152-HQPA] | synergistic | 4.65 | 5.9 | 3.4 | –
N[C@@H]1CCCN(c2c(/C=C3\SC(=O)NC3=O)cccc2-c2ccccc2)C1 [AZD1208] | synergistic | 3.7 | 7.1 | 0.3 | –
COc1ccc(-c2ccc3c(N4CCOC[C@@H]4C)nc(N4CCOC[C@@H]4C)nc3n2)cc1CO [AZD8055] | synergistic | 3.7 | 5.9 | 1.5 | –
O=C1CN2Cc3c(ccc(Cl)c3Cl)N=C2N1 [Anagrelide, anagrelide] | – | – | – | – | DSS (drug sensitivity score) (SA4 cell line; Anagrelide alone, SA4): 15.4; IC50 (SA4 cell line; Anagrelide alone, SA4, cell viability 72 hours): 73.5 nM; DSS (drug sensitivity score) (GOT3 cell line; Anagrelide alone, GOT3): 9.2; IC50 (GOT3 cell line; Anagrelide alone, GOT3, cell viability 72 hours): 84.3 nM
C[C@@]1(C(=O)Nc2ccc(F)nc2)CCCN1c1nc(Nc2cc(C3CC3)n[nH]2)c2cccn2n1 [BMS-754807] | synergistic | – | – | – | GIST882 cell line: DSS(combo (BAY2666605))-DSS(drug) (GIST882 cell line): 0.7; SA4 cell line: DSS(combo (BAY2666605))-DSS(drug) (SA4 cell line; SA4): 7.5; GOT3 cell line: DSS(combo (BAY2666605))-DSS(drug) (GOT3 cell line; GOT3): 4.4; Average DSS (aDSS) [1]: 4.2
C=C(c1ccc(C(=O)O)cc1)c1cc2c(cc1C)C(C)(C)CCC2(C)C [Bexarotene, bexarotene] | synergistic | – | – | – | GIST882 cell line: DSS(combo (BAY2666605))-DSS(drug) (GIST882 cell line): 6.3; SA4 cell line: DSS(combo (BAY2666605))-DSS(drug) (SA4 cell line; SA4): 6.4; GOT3 cell line: DSS(combo (BAY2666605))-DSS(drug) (GOT3 cell line; GOT3): −1.1; Average DSS (aDSS) [1]: 3.9
CC(C)C[C@H](NC(=O)[C@H](Cc1ccccc1)NC(=O)c1cnccn1)B(O)O [Bortezomib, bortezomib] | – | – | – | – | GIST882 cell line: DSS(combo (BAY2666605))-DSS(drug) (GIST882 cell line): 1.7; SA4 cell line: DSS(combo (BAY2666605))-DSS(drug) (SA4 cell line; SA4): 11.2; GOT3 cell line: DSS(combo (BAY2666605))-DSS(drug) (GOT3 cell line; GOT3): 10.4; Average DSS (aDSS) [1]: 7.8
CO[C@H]1CC[C@H](N2C(=O)CNc3ncc(-c4ccc(C(C)(C)O)nc4)nc32)CC1 [CC-223] | synergistic | 3.2 | 5.6 | 0.8 | –
COc1ccc(-c2nc(N3CCOCC3)c3sc(CN(C)c4ncc(C(=O)NO)cn4)cc3n2)cn1 [CUDC-907] | synergistic | 5.4 | 10.8 | 0 | –
COc1c(OCCCN2CCOCC2)ccc2c1N=C(NC(=O)c1cnc(N)nc1)N1CCN=C21 [Copanlisib, copanlisib] | synergistic | – | – | – | GIST882 cell line: DSS(combo (BAY2666605))-DSS(drug) (GIST882 cell line): 6.8; SA4 cell line: DSS(combo (BAY2666605))-DSS(drug) (SA4 cell line; SA4): 8.1; GOT3 cell line: DSS(combo (BAY2666605))-DSS(drug) (GOT3 cell line; GOT3): −1.4; Average DSS (aDSS) [1]: 4.5
CC1(C)OCCn2c1nc1c(N3CCOCC3)nc(-c3cnc(N)nc3)nc12 [GDC-0084] | synergistic | 3.1 | 3.9 | 2.3 | –
CC(C)Oc1ccc(C(=O)N[C@H](CNC(=O)CN(C)C)Cc2ccc(-c3cn4cccc([C@H](C)O)c4n3)cc2)cc1Cl [GSK923295] | synergistic | 3.35 | 3.9 | 2.8 | –
Cn1cc(-c2cnn3c(N)c(Br)c([C@@H]4CCCNC4)nc23)cn1 [MK-8776] | – | – | – | – | Average DSS (aDSS) (GOT3 and SA4 cell lines): 3.2; SA4 cell line: DSS(combo (anagrelide))-DSS(drug) (SA4 cell line): 4.8; GOT3 cell line: DSS(combo (anagrelide))-DSS(drug) (GOT3 cell line): 1.6; synergy in high-throughput screening (in words) [1]: synergistic
CO[C@@H]1[C@H](N(C)C(=O)c2ccccc2)C[C@H]2O[C@]1(C)n1c3ccccc3c3c4c(c5c6ccccc6n2c5c31)C(=O)NC4 [Midostaurin, midostaurin] | – | 3.7 | 5.1 | 2.3 | –
CNC(=O)c1nn(C)c2c1C(C)(C)Cc1cnc(Nc3ccc(N4CCN(C)CC4)cc3)nc1-2 [Milciclib, milciclib] | synergistic | 3.75 | 3.9 | 3.6 | –
Nc1nccc(-c2c(-c3ccc(F)cc3)ncn2C2CCCCC2)n1 [PF-670462] | synergistic | 3.65 | 7.1 | 0.2 | –
C/C=C1\NC(=O)[C@H]2CSSCC/C=C/[C@H](CC(=O)N[C@H](C(C)C)C(=O)N2)OC(=O)[C@H](C(C)C)NC1=O [Romidepsin, romidepsin] | – | – | 6.3 | 1.4 | –
CN(C)C[C@@H]1CCn2cc(c3ccccc32)C2=C(C(=O)NC2=O)c2cn(c3ccccc23)CCO1 [Ruboxistaurin] | synergistic | 3.3 | 4.8 | 1.8 | –
CC(C)(C)C[C@@H]1N[C@@H](C(=O)N[C@H]2CC[C@H](O)CC2)[C@H](c2cccc(Cl)c2F)[C@]12C(=O)Nc1cc(Cl)ccc12 [SAR405838] | synergistic | 3.95 | 7.8 | 0.1 | –
Nc1nc2cc(-c3ccc4ncc(C(=O)N5CCOCC5)n4c3)ccc2o1 [Serabelisib, serabelisib] | synergistic | 3.85 | 5.8 | 1.9 | –
Cn1ncc(Cl)c1-c1cc(C(=O)N[C@H](CN)Cc2ccc(F)c(F)c2)oc1Cl [Uprosertib, uprosertib] | synergistic | 3.6 | 5.4 | 1.8 | –
CNC(=O)c1ccccc1Nc1cc(Nc2ccc(N3CCOCC3)cc2OC)ncc1C(F)(F)F [VS-4718] | synergistic | 4.55 | 5.3 | 3.8 | –

Reference: patent US20250041294A1, “Synergistic compositions for use in the treatment of cancer” (Sartar Therapeutics Oy, priority 2021, published 2025)
